Results as given in patent US20070178575A1, “Identification Of A Nitrilase From B. Japonicum By Rational Genome Mining And Methods Of Use” (priority 2005, published 2007).

Experiments:
nitrilase bll6402 [1] = target: T1, nitrilase bll6402 (Bradyrhizobium diazoefficiens, UniProt Q89GE3); assay: Substrate specificity: specific/relative activity by ammonia release; assay type: biochemical, Bradyrhizobium japonicum USDA110; conditions: for Relative Activity: 25 mM substrate, pH 7.2, 30° C., phenylacetonitrile defined as 100
T1 sequence (Q89GE3 whole entry, looked up): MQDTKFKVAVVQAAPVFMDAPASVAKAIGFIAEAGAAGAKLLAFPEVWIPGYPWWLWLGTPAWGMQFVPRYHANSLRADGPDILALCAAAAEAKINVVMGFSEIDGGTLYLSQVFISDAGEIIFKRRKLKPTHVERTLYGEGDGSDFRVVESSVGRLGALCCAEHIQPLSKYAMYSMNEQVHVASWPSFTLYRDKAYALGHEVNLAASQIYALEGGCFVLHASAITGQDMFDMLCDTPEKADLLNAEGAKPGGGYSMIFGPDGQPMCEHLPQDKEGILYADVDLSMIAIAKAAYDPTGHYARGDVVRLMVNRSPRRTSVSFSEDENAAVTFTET
Method: The standard assays were carried out by mixing the substrate nitrile and purified nitrilase enzyme in potassium phosphate buffer (100 mM, pH 7.2). The reaction mixture was incubated at 30° C. Samples (100 μL) of the reaction mixture were withdrawn at several time intervals and quenched with 10 μl of 1 M HCl. The amount of ammonia produced in the reaction was measured using Bertholet assay as follows: A 100 μL aliquot of each of the following assay reagents was added subsequently: 0.02 M NaOCl, 0.33 M sodium phenoxide and 0.01% sodium nitroprusside solution. The mixture was then heated at 95° C. for 2 min, cooled rapidly in ice-water bath, and 200 μl of the mixture was then placed in a 96-well plate to measure the absorbance at 640 nm using SpectraMax M2 microplate reader (Molecular Devices). The amount of ammonia released during the hydrolysis was calculated by comparison with the standard curve obtained with standard ammonium chloride solution, and the activity was defined as the number of μmol of ammonia produced in 1 minute by 1 mg of enzyme (μmol·min^−1·mg^−1). To determine the kinetic parameters of the purified protein for mandelonitrile, activity assays were performed with different substrate concentrations, and Vmax and Km were calculated by best fitting the curve to experimental data according to Michaelis equation.
The specific activities of nitrilase bll6402 toward 24 different nitrites with structural diversity were measured by the quantification of the amount of ammonia released during the hydrolysis. A reaction mixture containing 20 or 40 μg of purified bll6402 enzyme, 25 mM substrate in potassium phosphate buffer (1 ml, 100 mM, pH 7.2) was incubated at 30° C. The conversion was determined by measuring the amount of ammonia produced in the reaction using Bertholet assay as described above.

nitrilase bll6402 [2] = target: T1, nitrilase bll6402; assay: Selective hydrolysis of dinitriles to cyanocarboxylic acids; assay type: biochemical, Bradyrhizobium japonicum USDA110; conditions: selective hydrolysis of dinitrile
Excerpt: Because of the synthetic importance of selective hydrolysis of dinitriles to […], nitrilase bll6402 was studied toward the hydrolysis of a series of dinitriles (e.g., scheme 6). [drawing 6]
The selectivity was not dependent on the chain length. This was different from the results obtained with nitrilases from Arabidopsis thaliana, acidovorax facilis 72W and cyanobacterium Synechocystis sp. strain PCC 6803, in which di-acids were obtained as the chain length increased.

nitrilase bll6402 [3] = target: T1, nitrilase bll6402; assay: Regioselective hydrolysis of 1-cyanocycloalkaneacetonitriles; assay type: biochemical, Bradyrhizobium japonicum USDA110; conditions: 200 mg dinitrile, 10 mg nitrilase, pH 7.2, 30° C.
Method: The general procedure was followed: 1-Cyanocycloalkaneacetonitiles (200 mg) was treated with the nitrilase (10 mg) in potassium phosphate buffer (50 ml, 100 mM, pH=7.2). The reaction mixture was incubated at 30° C. and monitored by ^13C NMR. When dinitrile was consumed, the mixture was acidified with 1 N HCl solution to pH˜5, saturated with NaCl and extracted with ethyl acetate. The organic extract was dried over anhydrous sodium sulfate. Removal of solvent provided the desired product, which was further purified by preparative TLC using ethyl acetate-hexane (35/65, v/v) as eluting solvent.

nitrilase bll6402 [4] = target: T1, nitrilase bll6402; assay: Enantioselective hydrolysis of β-hydroxy nitriles; assay type: biochemical, Bradyrhizobium japonicum USDA110
Method: β-Hydroxy nitrites were prepared by the cyanization of α-bromoketones with sodium cyanide followed by NaBH4 reduction. The obtained β-hydroxy nitrites were treated with purified nitrilase bll6402 in potassium phosphate buffer (100 mM, pH 7.0), and the reaction mixture was incubated overnight at 30° C. The mixture was then saturated with NaCl and extracted with ethyl acetate. The extract was dried over sodium sulfate, and evaporation of the solvent under reduced pressure afforded the crude products. The β-hydroxy carboxylic acids were separated from unreacted β-hydroxy nitrites by preparative thin-layer chromatography.
The ee values of both the product acids and the recovered nitrites were measured by chiral HPLC analysis, and their absolute configurations were determined by comparing the sign of optical rotation with the literature data. The enantiomeric ratios (E) were calculated using the equations proposed by Sih et al. (J. Am. Chem. Soc. 1982, 104, 7294-7299). The results are presented in Table 6 together with the data for the hydrolysis of mandelonitrile under the same conditions.

nitrilase bll6402 [5] = target: T1, nitrilase bll6402; assay: Hydrolysis of aromatic α-hydroxy nitriles, conversion by HPLC; assay type: biochemical, Bradyrhizobium japonicum USDA110; conditions: 25 mM nitrile, 0.16 mg nitrilase in 1 mL, pH 7.2, overnight at 30° C.
Method: To further characterize the efficiency of nitrilase b116402 to catalyze the hydrolysis of mandelonitrile derivatives to the corresponding carboxylic acids, the hydrolysis of several aromatic α-hydroxy nitrites were carried out and the product carboxylic acids were characterized by HPLC analysis. An example procedure was as follows: aromatic α-hydroxynitriles (25 mM) were treated with 0.16 mg nitrilase bll6402 in 1 mL of potassium phosphate buffer (100 mM, pH 7.2). The reaction mixture was incubated overnight at 30° C. A sample was withdrawn and analyzed by HPLC (column: Agilent C8, eluent: MeOH:H2O=20:80, flow rate: 1 mL/min, detector: 254 nm) and the products were identified by comparison with the authentic standards.

[6] = tested on: arylacetonitrilases from Alcaligenes faecalis ATCC8750 and JM3; conditions: known arylacetonitrilases; cited from earlier work
nitrilase bll6402 [7] = target: T1, nitrilase bll6402; assay type: biochemical, Bradyrhizobium japonicum USDA110; conditions: pH 7.2
[8] = Effects of temperature, pH and organic solvents on nitrilase activity; assay type: biochemical; conditions: 30% (v/v) of hexane, tert-butyl methyl ether or toluene; 30° C., pH 7.1, 4 hours
Method: For the determination of temperature effect, a mixture of nitrilase (0.5 mg) with benzyl cyanide (50 mM) in 1.0 ml of potassium phosphate buffer (100 mM, pH 7.1) was incubated at 25° C., 30° C., 37° C. and 45° C., respectively. Aliquots (100 μl) were taken after 1, 2, 4, and 16 hrs intervals, and acidified with 10 μl of 1M HC1. The formed phenylacetic acid was extracted into 200 μl of tert-butyl methyl ether, dried over anhydrous sodium sulfate, and quantified by GC analysis after converting to methyl ester with diazomethane.
The pH effect was studied using the following buffer: sodium citrate buffer (pH 4.91 and 5.44), potassium phosphate buffer (pH 6.07, 6.52, 7.10, 7.58, 7.98 and 8.49) and sodium bicarbonate buffer (pH 8.98). A mixture of nitrilase (0.5 mg) with benzyl cyanide (50 mM) in 1.0 ml of the respective buffer (100 mM) was incubated at 30° C. […] The formed phenylacetic acid was extracted into 200 μl of tert-butyl methyl ether, dried over anhydrous sodium sulfate, and quantified by GC analysis after converting to methyl ester with diazomethane.
The organic solvent effects were evaluated with dimethyl sulfoxide (DMSO), tert-butyl methyl ether, hexane, toluene and butyl acetate. […] The formed phenylacetic acid was extracted into 1 ml of tert-butyl methyl ether, dried over anhydrous sodium sulfate, and quantified by GC analysis after converting to methyl ester with diazomethane.

[9] = pH 7.0, overnight at 30° C., isolated yield

Molecule | Relative Activity (nitrilase bll6402 [1]) | also measured
N#CCCCCC#N [1,4-Dicyanobutane] | 5 | Yield (%) of cyanocarboxylic acid (nitrilase bll6402 [2]): 97%
N#CCCCCCC#N [1,5-Dicyanopentane] |  | Yield (%) of cyanocarboxylic acid (nitrilase bll6402 [2]): 90%
N#CCCCCCCC#N [1,6-Dicyanohexane] |  | Yield (%) of cyanocarboxylic acid (nitrilase bll6402 [2]): 88%
N#CCC1(C#N)CCCCC1 [1-cyancyclohexaneacetonitrile] |  | isolated yield of corresponding cyanocarboxylic acid (nitrilase bll6402 [3]): 88%
N#CCC1(C#N)CCCCCC1 [1-cyanocycloheptaneacetonitrile] |  | isolated yield of corresponding cyanocarboxylic acid (nitrilase bll6402 [3]): 54%
N#CCC1(C#N)CCCC1 [1-cyanocyclopentaneacetonitrile] |  | isolated yield of corresponding cyanocarboxylic acid (nitrilase bll6402 [3]): 92%
CC(C#N)CCC#N (stereo not drawn) [2-Methylglutaronitrile] | 3 | 
N#CC(N)c1ccccc1 (stereo not drawn) [2-Phenylglycinonitrile] | 3 | 
N#CCCN [3-Aminopropionitrile] | 1 | 
N#CCCO [3-Hydroxypropionitrile] | 1 | 
N#CCc1c[nH]c2ccccc12 [3-Indolylacetonitrile] | 2 | 
CC(CC#N)c1ccccc1 (stereo not drawn) [3-phenylbutyronitrile] |  | hydrolysis by nitrilase bll6402 (result in words) (nitrilase bll6402 [4]; same conditions as β-hydroxy nitriles): not hydrolyzed
CC(=O)c1ccc(C#N)cc1 [4-Acetylbenzonitrile] | 2 | 
N#CCCCCl [4-Chlorobutyronitrile] | 6 | 
N#CCCCc1ccccc1 [4-Phenylbutyronitrile] | 4 | 
C=CCC#N [Allyl cyanide] | 2 | 
N#Cc1ccccc1 [Benzonitrile] | 1 | 
CC=CC#N [Crotononitrile] | 3 | 
N#C/C=C/C#N [Fumaronitrile] |  | Yield (%) of cyanocarboxylic acid (nitrilase bll6402 [2]): 84%

Molecule | Relative Activity (nitrilase bll6402 [1]) | also measured
N#CCCCC#N [Glutaronitrile] |  | Yield (%) of cyanocarboxylic acid (nitrilase bll6402 [2]): 93%
CCCCCCC#N [Heptanenitrile] | 22 | 
CCCCCC#N [Hexanenitrile] | 16 | 
N#CCCc1ccccc1 [Hydrocinnamonitrile] | 13 | 
N#CC(O)c1ccccc1 (stereo not drawn) [Mandelonitrile] | 460 | activity relative to that of phenylacetonitrile (nitrilase bll6402 [1]; hydrolysis by nitrilase bll6402): 4.6 times; Conversion(%) (nitrilase bll6402 [5]): 98%; product acid (S)-2 ee (%) (nitrilase bll6402 [4]; pH 7.0, overnight at 30° C., chiral HPLC): 0%; product acid (S)-2 yield (%) (nitrilase bll6402 [4]; [9]): 98%; recovered nitrile (R)-1 yield (%) (nitrilase bll6402 [4]; [9]): 0%; activity as % of that for phenylacetonitrile [6]: 12-15%
CSCC#N [Methylthioacetonitrile] | 1 | Yield (%) of product carboxylic acid (nitrilase bll6402 [7]): 96%
N#CCc1ccccc1 [Phenylacetonitrile] | 100 | 
N#CCCCCCCCCC#N [Sebeconitrile] |  | Yield (%) of cyanocarboxylic acid (nitrilase bll6402 [2]): 88%
N#CCCC#N [Succinonitrile] |  | Yield (%) of cyanocarboxylic acid (nitrilase bll6402 [2]): 97%
CCCCC#N [Valeronitrile] | 6 | 
CCCC#N [n-Butyronitrile] | 3 | Yield (%) of product carboxylic acid (nitrilase bll6402 [7]): 61%
CC(C)(C#N)C#N [α,α-Dimethylmalononitrile] |  | Yield (%) of cyanocarboxylic acid (nitrilase bll6402 [2]): 93%
N#CC(O)c1cccc(O)c1 (stereo not drawn) [α-Hydroxy-α-(m-hydroxyphenyl)acetonitrile] |  | Conversion(%) (nitrilase bll6402 [5]): 94%
N#CC(O)c1ccc(O)cc1 (stereo not drawn) [α-Hydroxy-α-(p-hydroxyphenyl)acetonitrile] |  | Conversion(%) (nitrilase bll6402 [5]): 88%
CN(C)C(C#N)c1ccccc1 (stereo not drawn) [α-N,N-Dimethylaminophenylacetonitrile] | 1 | 
CCC(C#N)c1ccccc1 (stereo not drawn) [α-Phenylbutyronitrile] | 8 | 
C[Si](C)(C)OC(C#N)c1ccccc1 (stereo not drawn) [α-Trimethylsilyloxyphenylacetonitrile] | 165 | Conversion(%) (nitrilase bll6402 [5]): 99%
CC(C#N)c1ccccc1 (stereo not drawn) [α-phenylpropionitrile] | 10 | 
nitrilase bll6402: nitrilase (mandelonitrile hydrolase) from Bradyrhizobium japonicum USDA110, amino acid SEQ ID NO: 2, expressed in E. coli |  | retained activity in biphasic systems [8]: more than 70%
